# According to patent publication US4560509A, “Antibiotic A39079 factor S-1” (Eli Lilly and Company, priority 1983, dated 1985):
# Legend:
# Assay type in all cases: cell-based
# [1] = tested on: Staphylococcus aureus V41; assay: standard agar-dilution MIC assay; settings: agar dilution; Staphylococcus aureus V41; read-out: MIC
# Source text: (§1) Table V summarizes the minimal inhibitory concentrations (MIC) at which factor S-1 inhibits certain organisms as determined by standard agar-dilution assays. In Table V, the activity of factor S-1 is compared with that of rifampin.
# [2] = tested on: Escherichia coli TEM; assay: standard agar-dilution MIC assay
# Source text: as §1
# [3] = tested on: Escherichia coli EC14; assay: standard agar-dilution MIC assay
# Source text: as §1
# [4] = tested on: Pseudomonas aeruginosa X239; assay: standard agar-dilution MIC assay; settings: agar dilution; Pseudomonas aeruginosa X239; read-out: MIC
# Source text: as §1
# [5] = tested on: Haemophilus influenzae 76; assay: standard agar-dilution MIC assay
# Source text: as §1
# [6] = tested on: Pseudomonas aeruginosa X528; assay: standard agar-dilution MIC assay; settings: agar dilution; Pseudomonas aeruginosa X528; read-out: MIC
# Source text: as §1
# [7] = tested on: Serratia marcescens X99; assay: standard agar-dilution MIC assay; settings: agar dilution; Serratia marcescens X99; read-out: MIC
# Source text: as §1
# [8] = tested on: Citrobacter freundii CF17; assay: standard agar-dilution MIC assay; settings: agar dilution; Citrobacter freundii CF17; read-out: MIC
# Source text: as §1
# [9] = tested on: Proteus rettgeri C24; assay: standard agar-dilution MIC assay; settings: Providencia rettgeri; agar dilution; Proteus rettgeri C24; read-out: MIC
# Source text: as §1
# [10] = tested on: Enterobacter aerogenes EB17; assay: standard agar-dilution MIC assay; settings: Klebsiella aerogenes; agar dilution; Enterobacter aerogenes EB17; read-out: MIC
# Source text: as §1
# [11] = tested on: Salmonella typhi 1335; assay: standard agar-dilution MIC assay; settings: Salmonella enterica
# Source text: as §1
# [12] = tested on: Enterobacter aerogenes C32; assay: standard agar-dilution MIC assay; settings: Klebsiella aerogenes; agar dilution; Enterobacter aerogenes C32; read-out: MIC
# Source text: as §1
# [13] = tested on: Escherichia coli N10; assay: standard agar-dilution MIC assay
# Source text: as §1
# [14] = tested on: Acinetobacter calcoaceticus AC12; assay: standard agar-dilution MIC assay
# Source text: as §1
# [15] = tested on: Klebsiella pneumoniae X68; assay: standard agar-dilution MIC assay; settings: agar dilution; Klebsiella pneumoniae X68; read-out: MIC
# Source text: as §1
# [16] = tested on: Staphylococcus aureus S13E; assay: standard agar-dilution MIC assay
# Source text: as §1
# [17] = tested on: Staphylococcus epidermidis 222; assay: standard agar-dilution MIC assay; settings: agar dilution; Staphylococcus epidermidis 222; read-out: MIC
# Source text: as §1
# [18] = tested on: Enterobacter cloacae EB5; assay: standard agar-dilution MIC assay; settings: agar dilution; Enterobacter cloacae EB5; read-out: MIC
# Source text: as §1
# [19] = tested on: Staphylococcus aureus NRRL B313; assay: standard agar-dilution MIC assay; settings: NRRLB313; agar dilution; Staphylococcus aureus NRRL B313; read-out: MIC
# Source text: as §1
# [20] = tested on: Streptococcus pneumoniae Park 1; assay: standard agar-dilution MIC assay; settings: PARK1; agar dilution; Streptococcus pneumoniae Park 1; read-out: MIC
# Source text: as §1
# [21] = tested on: Serratia marcescens SE3; assay: standard agar-dilution MIC assay; settings: agar dilution; Serratia marcescens SE3; read-out: MIC
# Source text: as §1
# [22] = tested on: Staphylococcus aureus X400; assay: standard agar-dilution MIC assay; settings: agar dilution; Staphylococcus aureus X400; read-out: MIC
# Source text: as §1
# [23] = tested on: Staphylococcus epidermidis EPI1; assay: standard agar-dilution MIC assay
# Source text: as §1
# [24] = tested on: Pseudomonas aeruginosa Ps72; assay: standard agar-dilution MIC assay
# Source text: as §1
# [25] = tested on: Pseudomonas aeruginosa Ps18; assay: standard agar-dilution MIC assay
# Source text: as §1
# [26] = tested on: Klebsiella pneumoniae KAE; assay: standard agar-dilution MIC assay; settings: agar dilution; Klebsiella pneumoniae KAE; read-out: MIC
# Source text: as §1
# [27] = tested on: Klebsiella pneumoniae X26; assay: standard agar-dilution MIC assay; settings: agar dilution; Klebsiella pneumoniae X26; read-out: MIC
# Source text: as §1
# [28] = tested on: Shigella sonnei N9; assay: standard agar-dilution MIC assay
# Source text: as §1
# [29] = tested on: Streptococcus sp. group D 9960; assay: standard agar-dilution MIC assay; settings: agar dilution; Streptococcus sp. group D 9960; read-out: MIC
# Source text: as §1
# [30] = tested on: Proteus inconstans PR33; assay: standard agar-dilution MIC assay; settings: Providencia alcalifaciens; agar dilution; Proteus inconstans PR33; read-out: MIC
# Source text: as §1
# [31] = tested on: rumen flora; assay: ruminant feed-utilization activity (VFA and methane production in treated vs control flasks)
# Source text: Animals having a developed rumen function utilize feed by first degrading the carbohydrate (the main nutritive portion) to pyruvate. The pyruvate is further metabolized to volatile fatty acid (VFA) derivatives, which include acetate, propionate and butyrate. It is known that the efficiency of carbohydrate utilization in ruminants is increased by treatments which stimulate the animals' rumen flora to produce propionate compounds rather than acetate or butyrate compounds. Feed-utilization efficiency can also be improved by inhibiting methane production. When methane gas is produced in the rumen, it is generally lost through eructation. This energy loss can be minimized by inhibiting methane formation.
structure (smiles),measurement,setting,value
CC(=O)OC1C(C)C(O)C=COC2(C)Oc3c(C)c(O)c4c(c3C2=O)C(=O)C(C)=C(NC(=O)C=CC=CC(C)C(O)C(C)C(O)C1C)C4=O (stereo not drawn) [Factor S-1],MIC,[1],0.015 µg/mL
same,MIC,[2],> 128 µg/mL
same,MIC,[3],16 µg/mL
same,MIC,[4],16 µg/mL
same,MIC,[5],0.125 µg/mL
same,MIC,[6],16 µg/mL
same,MIC,[7],32 µg/mL
same,MIC,[8],16 µg/mL
same,MIC,[9],2 µg/mL
same,MIC,[10],32 µg/mL
same,MIC,[11],32 µg/mL
same,MIC,[12],16 µg/mL
same,MIC,[13],8 µg/mL
same,MIC,[14],2 µg/mL
same,MIC,[15],16 µg/mL
same,MIC,[16],0.015 µg/mL
same,MIC,[17],< 0.008 µg/mL
same,MIC,[18],32 µg/mL
same,MIC,[19],0.015 µg/mL
same,MIC,[20],< 0.008 µg/mL
same,MIC,[21],16 µg/mL
same,MIC,[22],0.06 µg/mL
same,MIC,[23],< 0.008 µg/mL
same,MIC,[24],16 µg/mL
same,MIC,[25],> 128 µg/mL
same,MIC,[26],16 µg/mL
same,MIC,[27],32 µg/mL
same,MIC,[28],8 µg/mL
same,MIC,[29],1 µg/mL
same,MIC,[30],8 µg/mL
same,"Ratio of Treated to Control, Molar Percent, acetic",[31]; dose 0.5 ppm,1.04
same,"Ratio of Treated to Control, Molar Percent, butyric",[31]; dose 0.5 ppm,0.57
same,"Ratio of Treated to Control, Molar Percent, propionic",[31]; dose 0.5 ppm,1.29
same,"Ratio of Treated to Control, mMoles/Day, Total VFA",[31]; dose 0.5 ppm,1.18
same,"Ratio of Treated to Control, mMoles/Day, acetic",[31]; dose 0.5 ppm,1.22
same,"Ratio of Treated to Control, mMoles/Day, butyric",[31]; dose 0.5 ppm,0.67
same,"Ratio of Treated to Control, mMoles/Day, methane",[31]; dose 0.5 ppm,1.03
same,"Ratio of Treated to Control, mMoles/Day, propionic",[31]; dose 0.5 ppm,1.52
same,"Ratio of Treated to Control, Molar Percent, acetic",[31]; dose 1 ppm,1.05
same,"Ratio of Treated to Control, Molar Percent, butyric",[31]; dose 1 ppm,0.48
same,"Ratio of Treated to Control, Molar Percent, propionic",[31]; dose 1 ppm,1.49
same,"Ratio of Treated to Control, mMoles/Day, Total VFA",[31]; dose 1 ppm,1.22
same,"Ratio of Treated to Control, mMoles/Day, acetic",[31]; dose 1 ppm,1.27
same,"Ratio of Treated to Control, mMoles/Day, butyric",[31]; dose 1 ppm,0.59
same,"Ratio of Treated to Control, mMoles/Day, methane",[31]; dose 1 ppm,0.98
same,"Ratio of Treated to Control, mMoles/Day, propionic",[31]; dose 1 ppm,1.75
same,"Ratio of Treated to Control, Molar Percent, acetic",[31]; dose 2 ppm,1.08
same,"Ratio of Treated to Control, Molar Percent, butyric",[31]; dose 2 ppm,0.43
same,"Ratio of Treated to Control, Molar Percent, propionic",[31]; dose 2 ppm,1.55
same,"Ratio of Treated to Control, mMoles/Day, Total VFA",[31]; dose 2 ppm,1.06
same,"Ratio of Treated to Control, mMoles/Day, acetic",[31]; dose 2 ppm,1.15
same,"Ratio of Treated to Control, mMoles/Day, butyric",[31]; dose 2 ppm,0.46
same,"Ratio of Treated to Control, mMoles/Day, methane",[31]; dose 2 ppm,1.09
same,"Ratio of Treated to Control, mMoles/Day, propionic",[31]; dose 2 ppm,1.63
same,"Ratio of Treated to Control, Molar Percent, acetic",[31]; dose 5 ppm,1.07
same,"Ratio of Treated to Control, Molar Percent, butyric",[31]; dose 5 ppm,0.62
same,"Ratio of Treated to Control, Molar Percent, propionic",[31]; dose 5 ppm,1.30
same,"Ratio of Treated to Control, mMoles/Day, Total VFA",[31]; dose 5 ppm,1.07
same,"Ratio of Treated to Control, mMoles/Day, acetic",[31]; dose 5 ppm,1.16
same,"Ratio of Treated to Control, mMoles/Day, butyric",[31]; dose 5 ppm,0.66
same,"Ratio of Treated to Control, mMoles/Day, methane",[31]; dose 5 ppm,0.50
same,"Ratio of Treated to Control, mMoles/Day, propionic",[31]; dose 5 ppm,1.39
same,feed-utilization efficiency in ruminants,[31]; statement in words,improve feed-utilization efficiency in ruminants
